# Reference: US20070293510A1, “Thiadiazole compounds and use thereof” (Sumitomo Chemical company, Limited ( a Japanese corporation), priority 2002, published 2007)
# Tested on: cotton aphids (Aphis gossypii)
# Test: Test Example: cotton aphid control on cucumber plants, spray of diluted formulation
# Format: in vivo
# Settings: formulation per Formulation Example 5 diluted with water to 500 ppm active ingredient; sprayed 20 ml/cup on cucumber plants with about 20 cotton aphids; counted on the 6th day after application
# Method: Each formulation of the present compound (1), (3), (4), (6), (7), (8), (12), (13), (14), (15), (16), (17), (18), (19), (20), (21), (22), (23), (24), (25), (26), (28), (30), (31), (33), (34), (35), (36), (37), (38), (42), (43) and (44) obtained according to the Formulation Example 5 was diluted with water so that the active ingredient concentration came to 500 ppm to prepare a diluting liquid. The seeds of cucumber were planted in polyethylene cups and grown until their first foliage leaves developed, on which about 20 cotton aphids (Aphis gossypii) were made parasitic. After one day, the diluting liquid was sprayed at the rate of 20 ml/cup onto the cucumber plants. On the 6th day after the application, the number of cotton aphids was examined. As a result, the numbers of the living cotton aphids were three or less.
row,SMILES,numbers of the living cotton aphids
1,"CSc1nsc(OCc2ccccc2)n1 [present compound (1), 5-benzyloxy-3-methylthio-1,2,4-thiadiazole]",three or less
2,"CSc1nsc(OCc2cccc(Cl)c2)n1 [present compound (3), 5-(3-chlorobenzyloxy)-3-methylthio-1,2,4-thiadiazole]",three or less
3,"CSc1nsc(OCc2ccc(Cl)cc2)n1 [present compound (4), 5-(4-chlorobenzyloxy)-3-methylthio-1,2,4-thiadiazole]",three or less
4,"CSc1nsc(OCc2cccc(C(F)(F)F)c2)n1 [present compound (6), 5-(3-trifluoromethylbenzyloxy)-3-methylthio-1,2,4-thiadiazole]",three or less
5,"CSc1nsc(OCc2ccc(C(F)(F)F)cc2)n1 [present compound (7), 5-(4-trifluoromethylbenzyloxy)-3-methylthio-1,2,4-thiadiazole]",three or less
6,"CSc1nsc(OCc2ccc(C)cc2)n1 [present compound (8), 5-(4-methylbenzyloxy)-3-methylthio-1,2,4-thiadiazole]",three or less
7,"CSc1nsc(OCc2ccc(F)cc2)n1 [present compound (12), 5-(4-fluorobenzyloxy)-3-methylthio-1,2,4-thiadiazole]",three or less
8,"CSc1nsc(OCc2ccc(Br)cc2)n1 [present compound (13), 5-(4-bromobenzyloxy)-3-methylthio-1,2,4-thiadiazole]",three or less
9,"CSc1nsc(OCc2ccc(I)cc2)n1 [present compound (14), 5-(4-iodobenzyloxy)-3-methylthio-1,2,4-thiadiazole]",three or less
10,"CSc1nsc(OCc2ccc(OC(F)(F)F)cc2)n1 [present compound (15), 5-(4-trifluoromethoxybenzyloxy)-3-methylthio-1,2,4-thiadiazole]",three or less
11,"CSc1nsc(OCc2c(F)cccc2F)n1 [present compound (16), 5-(2,6-difluorobenzyloxy)-3-methylthio-1,2,4-thiadiazole]",three or less
12,"CSc1nsc(OCc2cc(F)cc(F)c2)n1 [present compound (17), 5-(3,5-difluorobenzyloxy)-3-methylthio-1,2,4-thiadiazole]",three or less
13,"CSc1nsc(OCc2ccc(Cl)c(Cl)c2)n1 [present compound (18), 5-(3,4-dichlorobenzyloxy)-3-methylthio-1,2,4-thiadiazole]",three or less
14,"CSc1nsc(OCc2ccccn2)n1 [present compound (19), 5-(2-pyridylmethyloxy)-3-methylthio-1,2,4-thiadiazole]",three or less
15,"CSc1nsc(OCc2ccc(Cl)nc2)n1 [present compound (21), 5-(6-chloro-3-pyridyl)methyloxy-3-methylthio-1,2,4-thiadiazole]",three or less
16,"CSc1nsc(OC(C)c2ccccc2)n1 (centres unmarked) [present compound (22), 5-(1-phenylethoxy)-3-methylthio-1,2,4-thiadiazole]",three or less

row,SMILES,numbers of the living cotton aphids
1,"CSc1nsc(OCCc2ccccc2)n1 [present compound (23), 5-(2-phenylethoxy)-3-methylthio-1,2,4-thiadiazole]",three or less
2,"CSc1nsc(OCCc2ccccn2)n1 [present compound (24), 5-(2-pyridyl-2-ethyloxy)-3-methylthio-1,2,4-thiadiazole]",three or less
3,"CSc1nsc(OCCCc2ccccc2)n1 [present compound (25), 5-(3-phenylpropyloxy)-3-methylthio-1,2,4-thiadiazole]",three or less
4,"CSc1nsc(OCc2cccc([N+](=O)[O-])c2)n1 [present compound (26), 5-(3-nitrobenzyloxy)-3-methylthio-1,2,4-thiadiazole]",three or less
5,"CSc1nsc(OCc2cc(Cl)cc(Cl)c2)n1 [present compound (28), 5-(3,5-dichlorobenzyloxy)-3-methylthio-1,2,4-thiadiazole]",three or less
6,"C=CCSc1nsc(OCc2ccccc2)n1 [present compound (30), 5-benzyloxy-3-allylthio-1,2,4-thiadiazole]",three or less
7,"c1ccc(COc2nc(SCc3ccccc3)ns2)cc1 [present compound (31), 5-benzyloxy-3-benzylthio-1,2,4-thiadiazole]",three or less
8,"COc1ccc(CSc2nsc(OCc3ccccc3)n2)cc1 [present compound (33), 5-benzyloxy-3-(4-methoxybenzyl)thio-1,2,4-thiadiazole]",three or less
9,"CSc1nsc(OCc2ccncc2)n1 [present compound (34), 5-(4-pyridylmethyloxy)-3-methylthio-1,2,4-thiadiazole]",three or less
10,"CSc1nsc(OCc2cccc(Cl)n2)n1 [present compound (35), 5-(6-chloro-2-pyridylmethyloxy)-3-methylthio-1,2,4-thiadiazole]",three or less
11,"CSc1nsc(OCc2ncccn2)n1 [present compound (36), 5-(2-pyrimidylmethyloxy)-3-methylthio-1,2,4-thiadiazole]",three or less
12,"CSc1nsc(OCc2cncnc2)n1 [present compound (37), 5-(5-pyrimidylmethyloxy)-3-methylthio-1,2,4-thiadiazole]",three or less
13,"c1ccc(CSc2nsc(OCc3cncnc3)n2)cc1 [present compound (38), 5-(5-pyrimidylmethyloxy)-3-benzylthio-1,2,4-thiadiazole]",three or less
14,"CCOCSc1nsc(OCc2ccccc2)n1 [present compound (42), 5-benzylloxy-3-ethoxymethylthio-1,2,4-thiadiazole]",three or less
15,"c1ccc(COCSc2nsc(OCc3ccccc3)n2)cc1 [present compound (43), 5-bezyloxy-3-benzyloxymethylhio-1,2,4-thiadiazole]",three or less
16,"CC(=O)OCSc1nsc(OCc2ccccc2)n1 [present compound (44), 5-bezyloxy-3-acetoxymethylhio-1,2,4-thiadiazole]",three or less
